Measured values as given in patent US12433863B2, “Pharmaceutical compositions and uses directed to lysosomal storage disorders” (INTRABIO LIMITED, priority 2016, dated 2025).
Where “and” joins values, the source holds several entries; their conditions need not be identical. Equal values may be shown once.

Experiments:
[1] = test system: Sandhoff disease patient fibroblasts; experiment: Glycosphingolipid (GSL) levels by HPLC in Sandhoff disease patient fibroblasts; format: cell-based, human; conditions: 1 mM for 6 days
[2] = test system: AB variant of Tay-Sachs disease patient fibroblasts; experiment: Glycosphingolipid (GSL) levels by HPLC in AB variant of Tay-Sachs disease patient fibroblasts; format: cell-based, human; conditions: 1 mM for 6 days
[3] = test system: wild-type (Npc1^+/+) mice; experiment: In vivo mouse study in wild-type (Npc1+/+) littermates (weight, gait, motor function)
Experimental: Wild-type (Npc1^+/+) littermates were used as a control.
Separate groups of Npc1^−/− and Npc1^+/+ mice were left untreated, as controls.
Animals were weighed twice a week. Weights were averaged (mean) across all mice in each group and compared.
Gait analysis was performed on mice at eight weeks of age using a CatWalk® 15.0 system according to manufacturer's instructions (Noldus, Nottingham, UK). Five runs were recorded per animal.
CatWalk® parameters measured were: • 1. Stand Mean: average duration (s) of paws in contact with glass plate; • 2. Step Cycle: duration (s) between two consecutive contacts of the same paw; • 3. Duty Cycle: percentage of time paws in contact with plate compared with time to complete a step cycle; • 4. Step Sequence (AB): percentage of time spent walking in LF-RH-RF-LH alternating pattern (LF: left front; RH: right hind; RF: right front; LH left hind); • 5. Cadence: step per seconds in a trial; • 6. Diagonal Support: percentage of time with simultaneous contact of diagonal paws with the glass plate (RF&LH or RH&LF). Motor Function Analysis
Motor function analysis was performed on mice at eight and nine weeks of age using an Open Field Activity Monitor according to manufacturer's instructions (Linton Instruments, Amlogger Software). Each mouse was placed in a plastic cage with bedding and analysed for five minutes. Rears were counted manually.
Motor function parameters measured were: • 1. Centre Rearing: mice rearing on hind legs unsupported; • 2. Rearing: mice rearing on hind legs with and without the support of cage walls; • 3. Activity: regular movement of the animal including walks; • 4. Front to Back (FR) count: movement of the animal from front to back of the cage; • 5. Active Time: duration (s/min) of activeness regardless of movement; • 6. Mobile Time: duration (s/min) of mobility; • 7. Rearing Time: duration of any rearing.

[4] = test system: patients with ataxia; conditions: Becker-Bense et al. 2015; cited from earlier work
[5] = test system: patients with Niemann-Pick Type C (NPC); conditions: one-month study, 12 NPC patients; Bremova et al. 2015; cited from earlier work
[6] = test system: patients with cerebellar ataxia; conditions: cited from earlier work
[7] = test system: Tay-Sachs disease patient fibroblasts; experiment: Glycosphingolipid (GSL) levels by HPLC in Tay-Sachs disease patient fibroblasts; format: cell-based, human; conditions: 1 mM for 6 days, p<0.05
[8] = test system: NPC patients; experiment: Clinical severity score (CSS) and annual severity increment score (ASIS) in ten NPC patients; format: in vivo, human; conditions: 4.5 g/day
Description: An NPC patient's severity may be quantified by assigning a clinical severity score (CSS), which assesses various parameters of the disease and gives each parameter a score out of 5 (higher score =greater severity). See Yanjanin et al., “Linear Clinical Progression, Independent of Age of Onset, in Niemann-Pick Disease, Type C,” Am J Med Genet Part B 153B:132-140. In an untreated patient, one can typically predict how the CSS will change over time in an individual, as disease progression appears to be linear. For example, if Patient A moves from a CSS of 8 to a CSS of 12 between month 0 and month 12, it can be predicted that by month 36, the patient will have a CSS of 20. The annual severity increment score (ASIS) quantities the annual rate of change in the CSS, calculated by dividing the CSS of a patient by the patient's age. […] Each year, the patient would be expected to progress by 4 CSS points, such that at 4 years of age, the patient's CSS would be 16. If therapeutic intervention slowed or arrested disease progression, one would expect the patient to have a smaller ASIS score after such therapy than at baseline.
Ten NPC patients were administered acetyl-leucine at 4.5 g/day over long durations. A CSS was determined at baseline, and at various time points, for eye movement, ambulation, speech, swallow, fine motor skills, cognition, memory, and seizures. An overall CSS was calculated at baseline and at each such time point by adding the individual CSS values for each parameter (eye movement, ambulation, etc.).
The ASIS at baseline and each time point was calculated using each patient's CSS and age at the time of assessment. The overall ASIS for each patient at each time point is shown below in Table 15.

[9] = one line per patient, days per Table 5, listed as acetyl-leucine
[10] = one line per patient, score out of 5, listed as acetyl-leucine

For CC(=O)NC(CC(C)C)C(=O)O (racemic) [acetyl-DL-leucine], which “GSL levels (GSL storage)” value [1] is on record?
The value was “trend towards decreased GSL levels”.

And the “GSL levels (GSL storage)” value [2]?
The value was “trend towards decreased GSL levels”.

And the “Effect on weight gain” value ([3]; 0.1 g/kg from weaning, three to 10 weeks of age)?
Its value is “no significant effect”.

And the “Gait properties versus untreated littermates” value ([3]; 0.1 g/kg, eight weeks of age)?
Its value is “no significant difference”.

And the “Motor function properties versus untreated littermates” value ([3]; 0.1 g/kg, nine weeks of age)?
Its value is “no significant difference”.

What about the “Brain metabolism by PET” value [4] of the same molecule?
The value was “increased metabolism in the midbrain and lower brainstem in responders”.

What about the Ataxia symptoms [5] of the same molecule?
The Ataxia symptoms was “symptomatic improvement of ataxia”.

And the “Benefit in cerebellar ataxia, another case series” value ([6]; Pelz et al. 2015)?
Its value is “did not find benefit”.

And the “Temporal gait variability, quantitative gait analysis” value ([6]; Schniepp et al. 2015)?
Its value is “improved temporal gait variability”.

And the “Cerebellar ataxia symptoms, case series” value ([6]; Strupp et al. 2013)?
Its value is “symptomatic improvement of cerebellar ataxia”.

And the “GSL levels (GSL storage)” value [7]?
The value was “decrease was statistically significant”.

What about the “CSS overall, Time Point 2” value ([8]; one line per patient (Patient I.D 1-10), days per Table 5, listed as acetyl-leucine) of the same molecule?
The value was 33 and 12 (3×) and 13 and 23 and 19 and 22 and 11 (2×).

And the “CSS overall, Time Point 3” value [8, 9]?
Its value is 33 and 11 (2×) and 10 (2×) and 12 and 21 (2×) and 19.

And the “CSS overall, Time Point 4” value [8, 9]?
Its value is 33 and 12 and 21.

And the “CSS eye movement, Time Point 4” value ([8]; one line per patient, score out of 5)?
Its value is 3.

What about the “CSS ambulation, Time Point 2” value [8, 10] of the same molecule?
The value was 5 and 1 (3×) and 2 (5×) and 4.

And the “CSS ambulation, Time Point 4” value [8, 10]?
Its value is 5 and 1 and 2.

And the “CSS cognition, Time Point 2” value [8, 10]?
The value was 5 and 3 (5×) and 4 (3×) and 2.

What about the “CSS cognition, Time Point 3” value [8, 10] of the same molecule?
The value was 5 and 3 (5×) and 4 (3×).

What about the “CSS cognition, Time Point 4” value [8, 10] of the same molecule?
The value was 5 and 3 and 4.

What about the “CSS eye movement, Time Point 2” value [8, 10] of the same molecule?
The value was 3 (9×) and 2.

What about the “CSS eye movement, Time Point 3” value [8, 10] of the same molecule?
Its value is 3 (7×) and 2 (2×).

What about the “CSS fine motor skills, Time Point 2” value [8, 10] of the same molecule?
The value was 5 and 1 (6×) and 4 (2×) and 2.

What about the “CSS fine motor skills, Time Point 3” value [8, 10] of the same molecule?
The value was 5 and 1 (5×) and 4 (2×) and 2.

And the “CSS fine motor skills, Time Point 4” value [8, 10]?
The value was 5 and 1 and 4.

What about the “CSS memory, Time Point 2” value [8, 10] of the same molecule?
The value was 4 (3×) and 1 (5×) and 3 and 0.

What about the “CSS memory, Time Point 3” value [8, 10] of the same molecule?
The value was 4 (2×) and 0 (2×) and 1 (3×) and 3 (2×).

What about the “CSS memory, Time Point 4” value [8, 10] of the same molecule?
Its value is 4 and 1 and 3.

And the “CSS seizures, Time Point 2” value [8, 10]?
Its value is 5 and 0 (9×).

What about the “CSS seizures, Time Point 3” value [8, 10] of the same molecule?
Its value is 5 and 0 (8×).

And the “CSS seizures, Time Point 4” value [8, 10]?
Its value is 5 and 0 (2×).

What about the “CSS speech, Time Point 2” value [8, 10] of the same molecule?
Its value is 2 (4×) and 1 (6×).

What about the “CSS speech, Time Point 3” value [8, 10] of the same molecule?
The value was 2 (3×) and 1 (6×).

What about the “CSS speech, Time Point 4” value [8, 10] of the same molecule?
The value was 2 (2×) and 1.

And the “CSS swallow, Time Point 2” value [8, 10]?
The value was 4 and 2 (5×) and 3 (3×) and 0.

What about the “CSS swallow, Time Point 3” value [8, 10] of the same molecule?
The value was 4 and 2 (4×) and 3 (3×) and 0.

What about the “CSS swallow, Time Point 4” value [8, 10] of the same molecule?
Its value is 4 and 2 and 3.

What about the “Change in overall CSS over the course of the experiment” value ([8]; ten NPC patients) of the same molecule?
The value was “none of the ten patients showed an overall increase in CSS”.
